In experiment [1] the test system is Pseudomonas PAO1 strain (ATCC 15692). The experiment in a line: Growth of test microbe (turbidity OD600), 96-well microplate culture. Type of experiment: cell-based. The conditions noted are these: for inhibition at 18 ppm: final concentration 18 ppm; for inhibition at 37 ppm: final concentration 37 ppm; for inhibition at 5 ppm: final concentration 5 ppm; for inhibition at 101 ppm: final concentration 101 ppm. Here is the method: Pseudomonas PAO1 strain (ATCC 15692) was subjected to stationary culture performed in LB culture medium (Lysogeny Broth; manufactured by Becton Dickinson) at 37° C. for 24 hours. The turbidity (OD600) of the culture solution was measured. The culture solution was diluted with Mueller Hinton Broth (BBL made) to prepare a suspension (15 mL) having a turbidity (OD600) of 1/10^6.
To each of the wells of a 96-well microplate (351172; manufactured by Japan Becton Dickinson), 6 μL of DMSO (Tokyo Chemical Industry Co. Ltd) and an ethanol solution (1 μL, 3 μL or 5 μL) of a test compound were added. After that, the microplate was allowed to stand still at room temperature for 5 hours to evaporate ethanol. The suspension of Pseudomonas microbe prepared in the above step 1) was added in an amount of 145 μL per well and culture was initiated. As the test compound, 2-methylhydroquinone (Sigma Aldrich) and p-toluquinone (Tokyo Kasei) were used. As a reference compound, sodium hypochlorite (manufactured by Wako Pure Chemical Industries Ltd.) was used. As a control, an ethanol solvent (EtOH control) alone was used. The concentration of the test compound in the ethanol solution is 1,000 ppm or 10,000 ppm and the final concentration of the test compound in the culture solution was about from 7 to 333 ppm.
After the 96-well microplate was subjected to stationary culture performed at 30° C. for 24 hours, turbidity (OD600) was measured to check growth. Subsequently, individual wells were stained with 0.1% crystal violet and thoroughly washed twice with physiological saline. To each well, 200 μL of ethanol was added and the absorbance (OD570) was measured to obtain the amount of the biofilm formed.
Compounds listed in Table 3 were each added to a test microbe and culture was conducted by the same procedure as in Test Example 1 and the amount of growth (OD600) and the amount of biofilm formed (OD570) were measured. For compounds a, b, c, f, h, i, J and k, 20 mM ethanol solutions were prepared; whereas for compounds d, e, g, 5 mM ethanol solutions were prepared. The solutions were each added to a 96-well microplate in an amount of 1 to 8 μL and evaluation was made. The final concentrations of the individual compounds are described in Table 3.
(§1) Growth inhibition rates relative to the control (ethanol alone) were calculated based on OD600 values measured and in accordance with the following expression. In addition, biofilm (BF) formation inhibition rates relative to the control (ethanol alone) were calculated based on OD570 values and in accordance with the following expression:
Growth inhibition (%)=(1−(compound addition group OD600/control group OD600))×100
(§2) As a control, an ethanol solvent alone was used (EtOH control). The concentrations of test compounds in the ethanol solution were as follows: test compound 1: 20 mM, test compounds 2 to 7: 100 mM. To each of the wells of a 96-well microplate (351172; manufactured by Japan Becton Dickinson), 6 μL of DMSO (Tokyo Kasei) and an ethanol solution of each test compound (1 to 8 μL) were added and then the microplates were allowed to stand still at room temperature for 5 hours to evaporate ethanol. A suspension solution of a Pseudomonas microbe prepared in the same procedure as in Test Example 1, 1) was added in an amount of 145 μL per well and culture was initiated.
(§3) After the 96-well microplate was subjected to stationary culture at 30° C. for 24 hours, turbidity (OD600) was measured to check growth. Subsequently, individual wells were stained with 0.1% crystal violet and thoroughly washed twice with physiological saline. To each well, 200 μL of ethanol was added and the absorbance (OD570) was measured to obtain the amount of the biofilm formed. The growth inhibition rate and biofilm (BF) formation inhibition rate were calculated based on OD600 and OD570 values measured and in accordance with the expressions used in Test Example 2.

For experiment [2] the test system is unchanged. The experiment in a line: Amount of biofilm formed (crystal violet, OD570), 96-well microplate culture. It is filed as cell-based. The conditions noted are these: for inhibition at 18 ppm: final concentration 18 ppm; for inhibition at 37 ppm: final concentration 37 ppm; for inhibition at 5 ppm: final concentration 5 ppm; for inhibition at 101 ppm: final concentration 101 ppm. As for the experimental part:
Pseudomonas PAO1 strain (ATCC 15692) was subjected to stationary culture performed in LB culture medium (Lysogeny Broth; manufactured by Becton Dickinson) at 37° C. for 24 hours. The turbidity (OD600) of the culture solution was measured. The culture solution was diluted with Mueller Hinton Broth (BBL made) to prepare a suspension (15 mL) having a turbidity (OD600) of 1/10^6. […]
as §1
BF inhibition (%)={1−(compound addition group OD570/control group OD570)}×100
as §2, §3

Where [3] appears, read: Pseudomonas, read-out: BF inhibition (%).
The mark [4] stands for this setting: Test Example 3, final concentration 83 ppm.
Where [5] appears, read: Test Example 3, final concentration 165 ppm.
[6] abbreviates: Test Example 3, final concentration 331 ppm.
Setting [7] is: Test Example 3, final concentration 496 ppm.
Where [8] appears, read: Test Example 3, final concentration 579 ppm.
[9] abbreviates: Test Example 3, final concentration 661 ppm.

As to `CCc1cc(O)ccc1O` [f, Ethylquinol], the inhibition – broadly, the drop in the measured response relative to a control, in per cent – at 18 ppm in experiment [1] (Pseudomonas) amounted to 2.1%; in experiment [2] (setting [3]) it was 18.6%. Besides, the inhibition at 37 ppm in experiment [1] (Pseudomonas) came to 5.5%; in experiment [2] (setting [3]), 31.1%. For the same compound, the inhibition at 74 ppm in experiment [1] (Pseudomonas, final concentration 74 ppm) is less than 0%; in experiment [2] (Pseudomonas, final concentration 74 ppm, read-out: BF inhibition (%)), 40.6%. Moreover, the inhibition at 110 ppm in experiment [1] (Pseudomonas, final concentration 110 ppm) was less than 0%; in experiment [2] (Pseudomonas, final concentration 110 ppm, read-out: BF inhibition (%)), 50.8%. Also, the inhibition at 129 ppm in experiment [1] (Pseudomonas, final concentration 129 ppm) was less than 0%; in experiment [2] (Pseudomonas, final concentration 129 ppm, read-out: BF inhibition (%)), 75.4%. In addition, the inhibition at 147 ppm in experiment [1] (Pseudomonas, final concentration 147 ppm) is less than 0%; in experiment [2] (Pseudomonas, final concentration 147 ppm, read-out: BF inhibition (%)) it was 78.9%.
`Cc1cc(O)cc(O)c1` [Compound 2, 5-Methylresocinol]: the “Growth inhibition (%)” value in experiment [1] (setting [4]) is listed as “— (No growth inhibition or no BF inhibition)”; in experiment [1] (setting [5]), 10.4%; in experiment [1] (setting [6]), “— (No growth inhibition or no BF inhibition)”; in experiment [1] (setting [7]) it was “— (No growth inhibition or no BF inhibition)”; in experiment [1] (setting [8]) it was 17.6%; in experiment [1] (setting [9]), “— (No growth inhibition or no BF inhibition)”. Besides, the “BF inhibition (%)” value in experiment [2] (setting [4]) is listed as “— (No growth inhibition or no BF inhibition)”; in experiment [2] (setting [5]), “— (No growth inhibition or no BF inhibition)”; in experiment [2] (setting [6]), “— (No growth inhibition or no BF inhibition)”; in experiment [2] (setting [7]) it was 57.5%; in experiment [2] (setting [8]), 57.7%; in experiment [2] (setting [9]), 70.2%.
`Cc1cc(O)c(C)c(C)c1O` [g, 2,3,5-Trimethylhydroquinone]: the inhibition at 5 ppm is less than 0% in experiment [1] (Pseudomonas) and 45.5% in experiment [2] (setting [3]). Besides, the inhibition at 10 ppm in experiment [1] (Pseudomonas, final concentration 10 ppm) is less than 0%; in experiment [2] (Pseudomonas, final concentration 10 ppm, read-out: BF inhibition (%)), 42.2%. Besides, the inhibition at 20 ppm came out at 0.1% in experiment [1] (Pseudomonas, final concentration 20 ppm) and 48% in experiment [2] (Pseudomonas, final concentration 20 ppm, read-out: BF inhibition (%)). Also, the inhibition at 30 ppm in experiment [1] (Pseudomonas, final concentration 30 ppm) is 65.8%; in experiment [2] (Pseudomonas, final concentration 30 ppm, read-out: BF inhibition (%)), 54.7%. For the same compound, the inhibition at 35 ppm in experiment [1] (Pseudomonas, final concentration 35 ppm) came to 67.5%; in experiment [2] (Pseudomonas, final concentration 35 ppm, read-out: BF inhibition (%)) it was 93.9%. The inhibition at 41 ppm in experiment [1] (Pseudomonas, final concentration 41 ppm) amounted to 68.5%; in experiment [2] (Pseudomonas, final concentration 41 ppm, read-out: BF inhibition (%)), 90.4%.
For the compound `Oc1ccc(O)c(O)c1` [h, Hydroxyhydroquinone], the inhibition at 17 ppm was determined as 46.2% in experiment [1] (Pseudomonas, final concentration 17 ppm) and 78.2% in experiment [2] (Pseudomonas, final concentration 17 ppm, read-out: BF inhibition (%)). The inhibition at 34 ppm in experiment [1] (Pseudomonas, final concentration 34 ppm) was found to be 18%; in experiment [2] (Pseudomonas, final concentration 34 ppm, read-out: BF inhibition (%)) it was 96.2%. Further, the inhibition at 67 ppm came to 7.2% in experiment [1] (Pseudomonas, final concentration 67 ppm) and 96.1% in experiment [2] (Pseudomonas, final concentration 67 ppm, read-out: BF inhibition (%)). The inhibition at 101 ppm in experiment [1] (Pseudomonas) was 1.7%; in experiment [2] (setting [3]), 96.3%. Further, the inhibition at 118 ppm worked out at 2% in experiment [1] (Pseudomonas, final concentration 118 ppm) and 96.3% in experiment [2] (Pseudomonas, final concentration 118 ppm, read-out: BF inhibition (%)). The inhibition at 134 ppm was found to be 5.4% in experiment [1] (Pseudomonas, final concentration 134 ppm) and 96.4% in experiment [2] (Pseudomonas, final concentration 134 ppm, read-out: BF inhibition (%)).
For `CCCCc1cc(O)ccc1O` [j, 2-Butylhydroquinone], the inhibition at 22 ppm worked out at 8.5% in experiment [1] (Pseudomonas, final concentration 22 ppm) and 16.3% in experiment [2] (Pseudomonas, final concentration 22 ppm, read-out: BF inhibition (%)). The inhibition at 44 ppm is less than 0% in experiment [1] (Pseudomonas, final concentration 44 ppm) and 14.1% in experiment [2] (Pseudomonas, final concentration 44 ppm, read-out: BF inhibition (%)). In addition, the inhibition at 89 ppm in experiment [1] (Pseudomonas, final concentration 89 ppm) worked out at 0.8%; in experiment [2] (Pseudomonas, final concentration 89 ppm, read-out: BF inhibition (%)), 42.1%. In addition, the inhibition at 133 ppm in experiment [1] (Pseudomonas, final concentration 133 ppm) was less than 0%; in experiment [2] (Pseudomonas, final concentration 133 ppm, read-out: BF inhibition (%)) it was 57.3%. In addition, the inhibition at 155 ppm in experiment [1] (Pseudomonas, final concentration 155 ppm) was less than 0%; in experiment [2] (Pseudomonas, final concentration 155 ppm, read-out: BF inhibition (%)), 63.9%. Moreover, the inhibition at 177 ppm in experiment [1] (Pseudomonas, final concentration 177 ppm) is less than 0%; in experiment [2] (Pseudomonas, final concentration 177 ppm, read-out: BF inhibition (%)) it was 75.4%.
As for `Cc1c(O)ccc(O)c1C` [e, 2,3-Dimethylhydroquinone], the inhibition at 5 ppm in experiment [1] (Pseudomonas) and in experiment [2] (setting [3]) was less than 0% throughout. The inhibition at 9 ppm in experiment [1] (Pseudomonas, final concentration 9 ppm) was 13.1%; in experiment [2] (Pseudomonas, final concentration 9 ppm, read-out: BF inhibition (%)) it was less than 0%. Moreover, the inhibition at 18 ppm in experiment [1] (Pseudomonas) was 0.8%; in experiment [2] (setting [3]) it was less than 0%. Besides, the inhibition at 27 ppm in experiment [1] (Pseudomonas, final concentration 27 ppm) was less than 0%; in experiment [2] (Pseudomonas, final concentration 27 ppm, read-out: BF inhibition (%)) it was 2.4%. The inhibition at 32 ppm worked out at 14% in experiment [1] (Pseudomonas, final concentration 32 ppm) and 17.8% in experiment [2] (Pseudomonas, final concentration 32 ppm, read-out: BF inhibition (%)). Further, the inhibition at 37 ppm was 5.4% in experiment [1] (Pseudomonas) and 31.1% in experiment [2] (setting [3]).
For the compound `CC(C)c1ccc(O)cc1O` [Compound 7, 4-Isopropylresorcinol], the inhibition at 101 ppm is less than 0% in experiment [1] (Pseudomonas, Test Example 3) and less than 0% in experiment [2] (Pseudomonas, Test Example 3, read-out: BF inhibition (%)). Also, the inhibition at 203 ppm in experiment [1] (Pseudomonas, Test Example 3, final concentration 203 ppm) was 5.7%; in experiment [2] (Pseudomonas, Test Example 3, final concentration 203 ppm, read-out: BF inhibition (%)), less than 0%. In addition, the inhibition at 405 ppm is less than 0% in experiment [1] (Pseudomonas, Test Example 3, final concentration 405 ppm) and less than 0% in experiment [2] (Pseudomonas, Test Example 3, final concentration 405 ppm, read-out: BF inhibition (%)). The inhibition at 608 ppm was found to be 4.8% in experiment [1] (Pseudomonas, Test Example 3, final concentration 608 ppm) and 29.1% in experiment [2] (Pseudomonas, Test Example 3, final concentration 608 ppm, read-out: BF inhibition (%)). The inhibition at 709 ppm was 19.5% in experiment [1] (Pseudomonas, Test Example 3, final concentration 709 ppm) and 29.3% in experiment [2] (Pseudomonas, Test Example 3, final concentration 709 ppm, read-out: BF inhibition (%)). In addition, the inhibition at 810 ppm in experiment [1] (Pseudomonas, Test Example 3, final concentration 810 ppm) turned out to be 40.2%; in experiment [2] (Pseudomonas, Test Example 3, final concentration 810 ppm, read-out: BF inhibition (%)), 21%.
